Measurements as given in ChEMBL document CHEMBL4765416, “Design, synthesis, and evaluation of pyrrolidine based CXCR4 antagonists with in vivo anti-tumor metastatic activity” (Eur J Med Chem, 2020).
Activity calls are given as the source filed them. The rule behind the calls is not given here.

What was measured:
[1] = molecular target: T1, C-X-C chemokine receptor type 4 (Homo sapiens, UniProt P61073); test: Antagonist activity at CXCR4 in human MDA-MB-231 cells assessed as inhibition of CXCL12-induced cell migration at 100 nM measured after 24 hrs by crystal violet staining based matrigel invasion assay; conditions: filed as antagonist
[2] = Half life in rat liver microsomes at 1 uM peincubated for 10 mins followed by NADPH addition and measured 60 mins by LC-MS/MS analysis; type: ADME, Microsome; conditions: time 70 min
[3] = Intrinsic clearance in rat liver microsomes at 1 uM peincubated for 10 mins followed by NADPH addition and measured 60 mins by LC-MS/MS analysis; type: ADME, Microsome; conditions: time 70 min, read-out: CLH
[4] = molecular target: T1, C-X-C chemokine receptor type 4; test: Inhibition of APC-conjugated anti-human CXCR4 clone 12G5 binding to CXCR4 in human HPBALL cells measured after 3 hrs by FACS analysis; type: cell-based
[5] = molecular target: T1, C-X-C chemokine receptor type 4; test: Antagonist activity at CXCR4 in human CD4-positive T cells assessed as inhibition of CXCL12-induced cytosolic calcium flux preincubated for 20 mins followed by CXCL12 addition by calcium 4 dye based FLIPR TETRA analysis; type: functional, cell-based, T cell

T1 sequence (P61073 whole entry): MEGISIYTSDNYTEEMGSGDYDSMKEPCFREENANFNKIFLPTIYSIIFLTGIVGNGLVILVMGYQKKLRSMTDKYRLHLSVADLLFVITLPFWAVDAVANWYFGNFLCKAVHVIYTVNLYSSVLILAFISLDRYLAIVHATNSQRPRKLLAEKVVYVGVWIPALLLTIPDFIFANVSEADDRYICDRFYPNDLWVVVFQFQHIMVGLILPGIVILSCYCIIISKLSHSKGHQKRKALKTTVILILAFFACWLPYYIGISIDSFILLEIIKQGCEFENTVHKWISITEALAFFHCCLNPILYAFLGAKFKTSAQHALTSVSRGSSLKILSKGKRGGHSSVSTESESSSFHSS

half-life at 1 µM [2] | CLint scaled at 1 µM [3] | SMILES | further results
– | – | c1cc(CN2CCCNCCNCCCNCC2)ccc1CN1CCCNCCNCCCNCC1 | inhibition [1]: Active
< 1 min | > 497 mL/min/kg | Cc1nc(CN(C)[C@H]2CCCc3cccnc32)cc(N2CCN3CCC[C@H]3C2)n1 | –
1.19 min | 2090 mL/min/kg | CCc1nc(CN(C)C2CCCc3cccnc32)cc(N2CCN(C)CC2)n1 (stereo unspecified) | –
– | – | Cc1nc(CN2CCCC2c2ccccn2)cc(N2CCN(C)CC2)n1 (stereo unspecified) | IC50 [4]: 0.319 µM
1.95 min | 1280 mL/min/kg | CCN(Cc1cc(N2CCN(C)CC2)nc(C)n1)C1CCCc2cccnc21 (stereo unspecified) | –
– | – | Cc1nc(CN2CCC[C@@H]2c2ccccn2)cc(N2CCN(C)CC2)n1 | IC50 [4]: > 10 µM
1.6 min | 1550 mL/min/kg | Cc1nc(CN(C)[C@H]2CCCc3cccnc32)cc(N2CCN(C)[C@@H](C)C2)n1 | –
1.59 min | 1570 mL/min/kg | Cc1nc(CN(C)[C@H]2CCCc3cccnc32)cc(N2CCN(C)CC2)n1 | –
1.51 min | 1640 mL/min/kg | Cc1nc(CN(C)C2CCCc3cccnc32)c(C#N)c(N2CCN(C)CC2)n1 (stereo unspecified) | –
< 1 min | > 497 mL/min/kg | Cc1nc(CN(C)[C@H]2CCCc3cccnc32)cc(N2C[C@@H](C)N(C)[C@@H](C)C2)n1 | –
– | – | Cc1cccc([C@@H]2CCCN2Cc2cc(N3CCN(C)CC3)nc(C)n2)n1 | IC50 [4]: 2.39 µM
3.82 min | 651 mL/min/kg | CN1CCN(c2cccc3nc(CN(C)[C@H]4CCCc5cccnc54)c(CO)n23)CC1 | –
– | – | Cc1nc(CN2CCC[C@H]2c2ncccc2C)cc(N2CCC(N(C)C)CC2)n1 | IC50 [5]: 0.013 µM
